Drawing on patent publication US20240101570A1 (AMGEN INC., priority 2020, published 2024), this text covers IC50 for 28 compounds.

The subject of one assay is HCT116 MTAP null cells. Description: HCT116 MTAP null cell proliferation / viability (CellTiter-Glo, 6 days). Particulars: HCT116-MTAP null, 144 h, HCT116 MTAP null cells, 6 days, CellTiter-Glo; read-out: HCT-116 MTAP null IC50. Type of assay: cell-based. The method in brief: (§1)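 IC50 values derive from sigmoidal dose-response fits, some with Hill slope fixed at −1 and top constrained to 100%, others from 4-parameter logistic models. They reflect CellTiter-Glo viability after 6 days of compound exposure at up to 10 or 50 μM.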

Another assay deals with HCT116 WT cells. The assay can be described thus: HCT116 WT cell proliferation / viability (CellTiter-Glo, 6 days). The following applies: Homo sapiens, HCT-116, 144 h, HCT116 WT cells, 6 days, CellTiter-Glo; read-out: HCT-116 WT IC50. Type of assay: cell-based. In a few lines: as §1
(In general: Cellular ATP, detected with luciferase, serves as a proxy for viable cell number.)

As a reminder, the IC50 is the midpoint of a concentration-inhibition curve. For the compound `C[C@@H](NC(=O)c1ccc2nc(N)c3c(c2c1)CO[C@@H]3C)c1ccc(C(F)(F)F)cn1` [Example 768, (3R)-4-amino-3-methyl-N-((1R)-1-(5-(trifluoromethyl)-2-pyridinyl)ethyl)-1,3-dihydrofuro[3,4-c]quinoline-8-carboxamide], the results for the IC50 in the assay with HCT116 MTAP null cells and with HCT116 WT cells were 4230 nM and over 50000 nM, respectively.

Consider `CN(Cc1ccc(C(F)F)cn1)C(=O)c1cc2c(cc1F)nc(N)c1cnn(C)c12` [Example 525, 4-amino-N-((5-(difluoromethyl)-2-pyridinyl)methyl)-7-fluoro-N,1-dimethyl-1H-pyrazolo[4,3-c]quinoline-8-carboxamide], for which the results for the IC50 in the assay with HCT116 MTAP null cells and in the assay on HCT116 WT cells were 32 nM and 2120 nM, respectively.

As to `C[C@@H](c1ccc(S(F)(F)(F)(F)F)cc1)N(C)C(=O)c1cc2c(cc1F)nc(N)c1cnn(C)c12` (single isomer, unassigned) [Example 869], the concentration for half-maximal inhibition (IC50) with HCT116 MTAP null cells turned out to be 627 nM; in the assay with HCT116 WT cells it was 8430 nM.

Turning to `C[C@H](c1ncccn1)N(Cc1ccc(C#N)cn1)C(=O)c1ccc2nc(N)c3c(c2c1)COC3` [Example 659, 4-amino-N-((5-cyano-2-pyridinyl)methyl)-N-((1R)-1-(2-pyrimidinyl)ethyl)-1,3-dihydrofuro[3,4-c]quinoline-8-carboxamide], the concentration for half-maximal inhibition (IC50) in the assay with HCT116 MTAP null cells stood at 14 nM; in the assay on HCT116 WT cells it was 378 nM.

With `C[C@H](c1ccc(C(F)(F)F)cn1)N(C)C(=O)c1ccc2nc(N)c3cnn(C)c3c2c1` (single isomer, unassigned) [Example 600], the half-inhibitory concentration (IC50) in the assay on HCT116 MTAP null cells is 18 nM; in the assay with HCT116 WT cells it was 663 nM.

In the case of `CN(Cc1ncc(C(F)(F)F)cc1F)C(=O)c1ccc2nc(N)c3cnn(C)c3c2c1` [Example 527, 4-amino-N-((3-fluoro-5-(trifluoromethyl)-2-pyridinyl)methyl)-N,1-dimethyl-1H-pyrazolo[4,3-c]quinoline-8-carboxamide], the half-maximal inhibitory concentration (IC50) turned out to be 183 nM in the assay with HCT116 MTAP null cells and 13500 nM with HCT116 WT cells.

Turning to `CCN(Cc1ccc(C(F)(F)F)cn1)C(=O)c1cc2c3c(c(N)nc2cc1Cl)COC3` [Example 420, 4-amino-7-chloro-N-ethyl-N-((5-(trifluoromethyl)-2-pyridinyl)methyl)-1,3-dihydrofuro[3,4-c]quinoline-8-carboxamide], the concentration for half-maximal inhibition (IC50) with HCT116 MTAP null cells came out at 248 nM; in the assay on HCT116 WT cells, 8360 nM.

As for `CC(C)N(Cc1ccc(Cl)cn1)C(=O)c1ccc2nc(N)c3c(c2c1)COC3` [Example 717, 4-amino-N-((5-chloro-2-pyridinyl)methyl)-N-(2-propanyl)-1,3-dihydrofuro[3,4-c]quinoline-8-carboxamide], the IC50 is 609 nM in the assay on HCT116 MTAP null cells and 7760 nM in the assay with HCT116 WT cells.

As for `Cn1cc(N(Cc2ccc(C(F)(F)F)cn2)C(=O)c2cc3c(cn2)nc(N)c2cnn(C)c23)cn1` [Example 507, 4-amino-1-methyl-N-(1-methyl-1H-pyrazol-4-yl)-N-((5-(trifluoromethyl)-2-pyridinyl)methyl)-1H-pyrazolo[4,3-c][1,7]naphthyridine-8-carboxamide], the concentration for half-maximal inhibition (IC50) in the assay on HCT116 MTAP null cells amounted to 25 nM; in the assay on HCT116 WT cells it was 373 nM.

On to `CCOc1ccc(CN(C(=O)c2cc3c4c(c(N)nc3cn2)COC4)C23CC(C2)C3)nn1` [Example 378, 4-amino-N-(bicyclo[1.1.1]pentan-1-yl)-N-((6-ethoxy-3-pyridazinyl)methyl)-1,3-dihydrofuro[3,4-c][1,7]naphthyridine-8-carboxamide], for which the figures for the half-inhibitory concentration (IC50) in the assay on HCT116 MTAP null cells and in the assay on HCT116 WT cells were 294 nM and 9430 nM, respectively.

As to `CC(c1ccc(C(F)(F)F)cn1)N(C)C(=O)c1cnc2nc(N)c3c(c2c1)COC3` (racemic) [Example 700, 4-amino-N-methyl-N-((1R)-1-(5-(trifluoromethyl)-2-pyridinyl)ethyl)-1,3-dihydrofuro[3,4-c][1,8]naphthyridine-8-carboxamide and 4-amino-N-methyl-N-((1S)-1-(5-(trifluoromethyl)-2-pyridinyl)ethyl)-1,3-dihydrofuro[3,4-c][1,8]naphthyridine-8-carboxamide], the half-inhibitory concentration (IC50) is 1100 nM with HCT116 MTAP null cells and over 10000 nM in the assay with HCT116 WT cells.

For `CN(Cc1ccc(S(F)(F)(F)(F)F)cc1)C(=O)c1cc2c3c(c(N)nc2cc1F)COC3` [Example 512, 4-amino-7-fluoro-N-methyl-N-(4-(pentafluoro-lambda~6~- sulfanyl)benzyl)-1,3-dihydrofuro[3,4-c]quinoline-8-carboxamide], the IC50 with HCT116 MTAP null cells was determined as 38 nM; in the assay with HCT116 WT cells, 1380 nM.

As for `CC(C)N(Cc1ccc(C(F)(F)F)cn1)C(=O)c1ccc2nc(N)c3c(c2c1)COC3(C)C` [Example 934, 4-amino-N-isopropyl-3,3-dimethyl-N-((5-(trifluoromethyl)pyridin-2-yl)methyl)-1,3-dihydrofuro[3,4-c]quinoline-8-carboxamide], the 50% inhibitory concentration (IC50) in the assay on HCT116 MTAP null cells was 79 nM; in the assay on HCT116 WT cells, over 1000 nM.

For the compound `CCN(Cc1ccc(OC(F)F)nn1)C(=O)c1cc2c3c(c(N)nc2cc1F)COC3` [Example 724, 4-amino-N-((6-(difluoromethoxy)-3-pyridazinyl)methyl)-N-ethyl-7-fluoro-1,3-dihydrofuro[3,4-c]quinoline-8-carboxamide], the IC50 in the assay with HCT116 MTAP null cells is 54 nM; in the assay with HCT116 WT cells it was 2440 nM.

Take `CCOc1ccc(CN(C(=O)c2ccc3nc(N)c4c(cnn4C)c3c2)[C@H](C)c2ncccn2)nn1` [Example 758, 4-amino-N-((6-ethoxy-3-pyridazinyl)methyl)-3-methyl-N-((1R)-1-(2-pyrimidinyl)ethyl)-3H-pyrazolo[3,4-c]quinoline-8-carboxamide]: the 50% inhibitory concentration (IC50) worked out at 37 nM in the assay on HCT116 MTAP null cells and 658 nM with HCT116 WT cells.

Consider `C[C@@H]1OCc2c1c(N)nc1cnc(C(=O)N(C)Cc3ccc(C4CC4)cn3)cc21` [Example 414, (3S)-4-amino-N-((5-cyclopropyl-2-pyridinyl)methyl)-N,3-dimethyl-1,3-dihydrofuro[3,4-c][1,7]naphthyridine-8-carboxamide], for which the values for the concentration for half-maximal inhibition (IC50) in the assay with HCT116 MTAP null cells and in the assay on HCT116 WT cells were 5860 nM and over 50000 nM, respectively.

With `Nc1nc2cc(F)c(C(=O)N(Cc3ccc(C4CC4)cn3)C3CC3)cc2c2c1COC2` [Example 370, 4-amino-N-cyclopropyl-N-((5-cyclopropyl-2-pyridinyl)methyl)-7-fluoro-1,3-dihydrofuro[3,4-c]quinoline-8-carboxamide], the IC50 with HCT116 MTAP null cells was 29 nM; in the assay on HCT116 WT cells, 1370 nM.

Consider `C[C@H](c1ncccn1)N(Cc1ccc(C(F)F)cn1)C(=O)c1ccc2nc(N)c3c(c2c1)COC3` [Example 438, 4-amino-N-((5-(difluoromethyl)-2-pyridinyl)methyl)-N-((1R)-1-(2-pyrimidinyl)ethyl)-1,3-dihydrofuro[3,4-c]quinoline-8-carboxamide], for which the values for the IC50 with HCT116 MTAP null cells and with HCT116 WT cells were 12 nM and 187 nM, respectively.

Take `CC(C)N(Cc1cnc(C(F)(F)F)cn1)C(=O)c1cc2c3c(c(N)nc2cc1Cl)COC3` [Example 499, 4-amino-7-chloro-N-(2-propanyl)-N-((5-(trifluoromethyl)-2-pyrazinyl)methyl)-1,3-dihydrofuro[3,4-c]quinoline-8-carboxamide]: the half-inhibitory concentration (IC50) in the assay on HCT116 MTAP null cells came to 164 nM; with HCT116 WT cells, 4140 nM.

On to `C[C@H]1OCc2c1c(N)nc1cnc(C(=O)N(C)Cc3ccc(Br)cn3)cc21` (single isomer, unassigned) [Example 597], for which the half-maximal inhibitory concentration (IC50) in the assay with HCT116 MTAP null cells worked out at 200 nM; with HCT116 WT cells, 15200 nM.

Take `COC[C@@H](C)N(Cc1ccc(Br)nn1)C(=O)c1ccc2nc(N)c3sccc3c2c1` [Example 643, 4-amino-N-((6-bromo-3-pyridazinyl)methyl)-N-((2R)-1-methoxy-2-propanyl)thieno[2,3-c]quinoline-8-carboxamide]: the IC50 with HCT116 MTAP null cells came to 178 nM; with HCT116 WT cells it was 1620 nM.

For `CO[C@@H]1CCOC[C@H]1N(Cc1ccc(C(F)(F)F)cn1)C(=O)c1ccc2nc(N)c3c(c2c1)COC3` (single isomer, unassigned) [Example 586], the half-inhibitory concentration (IC50) in the assay with HCT116 MTAP null cells came out at 12 nM; with HCT116 WT cells it was 150 nM.

With `COC[C@@H](C)N(Cc1ccc(Cl)nn1)C(=O)c1cc2c3c(c(N)nc2cn1)COC3` [Example 306, 4-amino-N-((6-chloro-3-pyridazinyl)methyl)-N-((2R)-1-methoxy-2-propanyl)-1,3-dihydrofuro[3,4-c][1,7]naphthyridine-8-carboxamide], the IC50 was 217 nM in the assay on HCT116 MTAP null cells and 7990 nM with HCT116 WT cells.

On to `CO[C@@H]1COCC[C@H]1N(Cc1ccc(C(F)(F)F)cn1)C(=O)c1ccc2nc(N)c3c(c2c1)COC3` (single isomer, unassigned) [Example 584], for which the IC50 in the assay with HCT116 MTAP null cells was 14 nM; in the assay on HCT116 WT cells it was 164 nM.

Regarding `CN(Cc1ccc(C(F)(F)F)cc1)C(=O)c1ccc2nc(N)c3c(c2c1)COC3` [Example 399, 4-amino-N-methyl-N-(4-(trifluoromethyl)benzyl)-1,3-dihydrofuro[3,4-c]quinoline-8-carboxamide], the results for the IC50 with HCT116 MTAP null cells and with HCT116 WT cells were 393 nM and 4430 nM, respectively.

Consider `Cn1cc(N(Cc2ccc(C(F)(F)F)cn2)C(=O)c2cc3c4c(c(N)nc3cc2Cl)COC4)cn1` [Example 715, 4-amino-7-chloro-N-(1-methyl-1H-pyrazol-4-yl)-N-((5-(trifluoromethyl)-2-pyridinyl)methyl)-1,3-dihydrofuro[3,4-c]quinoline-8-carboxamide], for which the values for the IC50 in the assay with HCT116 MTAP null cells and with HCT116 WT cells were 6 nM and 70 nM, respectively.

On to `CC1OCc2c1c(N)nc1ccc(C(=O)N(Cc3ccc(C#N)cn3)CC3CCOCC3)cc21` (centres unmarked) [Example 896, 4-amino-N-((5-cyanopyridin-2-yl)methyl)-3-methyl-N-((tetrahydro-2H-pyran-4-yl)methyl)-1,3-dihydrofuro[3,4-c]quinoline-8-carboxamide], for which the IC50 stood at 88 nM with HCT116 MTAP null cells and 1800 nM in the assay on HCT116 WT cells.

For the compound `CCN(Cc1ccc(C2CC2)cn1)C(=O)c1ccc2nc(N)c3cnn(C)c3c2c1` [Example 540, 4-amino-N-((5-cyclopropyl-2-pyridinyl)methyl)-N-ethyl-1-methyl-1H-pyrazolo[4,3-c]quinoline-8-carboxamide], the 50% inhibitory concentration (IC50) amounted to 39 nM in the assay on HCT116 MTAP null cells and 1480 nM in the assay with HCT116 WT cells.
